Experiments:
[1] = Preservation of quercetin-containing insulin hexameric complexes by small phenolic compounds; assay type: physicochemical; conditions: as small phenolic compound
insulin = insulin (Homo sapiens, UniProt P01308); conditions: does not require zinc ions; read-out: dissociation constant Kd of dimerization; cited from earlier work
Sequence of insulin (P01308 25-54 limits assumed): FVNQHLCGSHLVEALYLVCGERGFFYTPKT
Sequence of insulin (P01308 90-110 limits assumed): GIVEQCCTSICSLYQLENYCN

Row | Compound | preservation of insulin hexameric complexes that contained quercetin [1] | Kd (insulin) [µM]
1 | O=C(O)c1ccc(O)cc1 [4-hydroxybenzoic acid] | better preserve insulin hexameric complexes | –
2 | insulin: anabolic hormone of A-chain and B-chain linked by disulfide bonds | – | ~10
3 | O=C([O-])c1ccccc1.[Na+] [sodium benzoate] | better preserve insulin hexameric complexes | –

Source: patent publication US12708659B2, “Polyphenolic insulin” (KIMBALL WESTWARD LLC, priority 2020, dated 2026)
